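Compound exposure: 48 hours, 5 concentrations, 96-well plates. The concentration for 50% growth inhibition is given as GI50. Definition used: TGI = concentration required for complete inhibition of growth.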
Experiments:
Test in all cases: DTP human tumour cell line panel, 48 h
[1] = test system: SK-OV-3 ovarian
[2] = test system: HL-60(TB) leukemia
[3] = test system: U251 CNS
[4] = test system: SR leukemia
[5] = test system: SN12C renal
[6] = test system: HOP-92 NSCLC
[7] = test system: COLO 205 colon
[8] = test system: OVCAR-4 ovarian
[9] = test system: HS 578T breast
[10] = test system: HCC-2998 colon

| Structure (SMILES) | GI50 [1] | TGI [1] | GI50 [2] | TGI [2] | GI50 [3] | TGI [3] | GI50 [4] | TGI [4] | GI50 [5] | TGI [5] | GI50 [6] | TGI [6] | GI50 [7] | TGI [7] | GI50 [8] | TGI [8] | GI50 [9] | TGI [9] | GI50 [10] | TGI [10] |
| --- | --- | --- | --- | --- | --- | --- | --- | --- | --- | --- | --- | --- | --- | --- | --- | --- | --- | --- | --- | --- |
| C#CCOc1cccc(Nc2ncnc3ccc(NC(=O)CCl)cc23)c1 | 2590 nM | > 100 µM | 1660 nM | 19.2 µM | 364 nM | 8.23 µM | 74.3 nM | 17.9 µM | 300 nM | > 79.8 µM | 2900 nM | 16.9 µM | 463 nM | 16.8 µM | 5.49 µM | 25.6 µM | 4.12 µM | > 100 µM | 3.71 µM | 22.7 µM |
| O=C1/C(=C/c2ccccc2)CN(C(=O)OCc2ccccc2)C/C1=C\c1ccccc1 |  | 40.5 µM |  | 5.43 µM |  | 17.8 µM |  | 12.3 µM |  | 22.7 µM |  | > 100 µM |  | 34.1 µM | 7.9 µM | 27.4 µM |  | 10.1 µM |  | 18.3 µM |
| COc1ccc(-c2c(-c3cc(OC)c4c(c3)OCO4)noc2N)cc1 | 32 nM | 1.29 µM | 35.1 nM | 13.7 µM | 38.2 nM | 42.7 µM | < 10.4 nM | > 36.6 µM | 147 nM | > 93 µM | 3720 nM | 35.8 µM | 34.7 nM | 0.122 µM | 0.204 µM | > 56.4 µM | 0.0302 µM | 49.6 µM | 0.11 µM | 18.3 µM |
| C=C1C(=O)O[C@H]2[C@H]1CC/C(COC(=O)c1ccc(C#N)cc1)=C\CC[C@@]1(C)O[C@@H]21 | 15800 nM | 29.2 µM | 1670 nM | 7.47 µM | 2860 nM | 10.3 µM | 548 nM | > 100 µM | 2220 nM | 5.75 µM | 1590 nM | 3.8 µM | 1630 nM | 3.81 µM | 2.88 µM | 9.39 µM | 3.04 µM | 15.9 µM | 4.1 µM | 14.3 µM |
